Series [1] can be described thus: Antioxidant activity assessed as ABTS radical scavenging activity by spectrophotometric analysis relative to control. It is filed as functional. More on the design: concentration or dose not given beside the values. The conditions noted are these: dose or concentration not given here.
The nature of series [2]: Antioxidant activity assessed as DPPH radical scavenging activity incubated in dark for 30 mins by spectrophotometric method relative to control. It is filed as functional. More on the design: concentration or dose not given beside the values. For orientation: DPPH is a stable violet radical that fades when it is reduced.
The subject of series [3] is Erythrocyte. In words: (§1) Haemolytic activity in human erythrocytes assessed as induction of hemolysis at 0.625 mM after 30 mins relative to H202. It is filed as cell-based. The conditions noted are these: erythrocyte, 0.5 h, 625 µM.
The nature of series [4]: Haemolytic activity in human erythrocytes assessed as induction of hemolysis at 10 mM after 30 mins relative to H202. It is filed as cell-based, Erythrocyte. To be noted: read-out: Activity.
Series [5] relates to HCT-116. In words: Induction of apoptosis in human HCT116 cells assessed as increase in p53 mRNA expression at 100 nM after 6 hrs hrs by SYBR green dye-based qRT-PCR analysis relative to control. Type of series: functional. (In general: Quantitative PCR measures a nucleic acid by following its amplification.)
Series [6] concerns HCT-116. In words: Induction of apoptosis in human HCT116 cells assessed as increase in caspase 3 mRNA expression at 100 nM after 6 hrs hrs by SYBR green dye-based qRT-PCR analysis relative to control. Type of series: functional.
For another series, the system named is K562. In words: Antiproliferative activity against human K562 cells assessed as growth inhibition after 48 hrs by sulforhodamine B assay. It is filed as functional, cell-based. To be noted: K562, 48 h; for pIC50: read-out: IC50; for IC50: read-out: pIC50 (converted). (The SRB assay estimates cell density from bound dye.)
The nature of series [7]: Pro-oxidant activity assessed as increase in bleomycin-Fe2+ induced calf thymus DNA damage at 2 mM after 1 hr by thiobarbituric acid based absorbance analysis.
In the next series the test system is WI-38. In words: Cytotoxicity activity against human WI38 cells assessed as reduction in cell viability measured after 48 hrs by MTT assay. Type of series: cell-based. To be noted: WI-38, 48 h.
The nature of series [8]: Antioxidant activity assessed as hydroxyl radical scavenging activity after 1 hr by salicylic acid-based Fenton reaction assay. Type of series: functional.
Series [9] can be described thus: Haemolytic activity in human erythrocytes assessed as induction of hemolysis at 5 mM after 30 mins relative to H202. It is filed as cell-based, Erythrocyte. The conditions noted are these: read-out: Activity.
Series [10] concerns HCT-116. The experiment in a line: […] in CDK1 mRNA expression in human HCT116 cells at 100 nM after 6 hrs hrs by SYBR green dye-based qRT-PCR analysis relative to control. It is filed as functional.
Series [11] can be described thus: (§2) Selectivity index, ratio of IC50 for human WI38 cells to GI50 for human NCI60 cells.
The test system of series [12] is Erythrocyte. In words: (§3) Haemolytic activity in human erythrocytes assessed as induction of hemolysis at 1.25 mM after 30 mins relative to H202. Type of series: cell-based. The conditions noted are these: erythrocyte, 0.5 h, 1250 µM.
Series [13] is described as follows: Antioxidant activity assessed as ABTS radical scavenging activity by spectrophotometric method relative to ascorbic acid. It is filed as functional.
For series [14], the system named is HCT-116. In words: Induction of apoptosis in human HCT116 cells assessed as increase in caspase 9 mRNA expression at 100 nM after 6 hrs hrs by SYBR green dye-based qRT-PCR analysis relative to control. It is filed as functional.
Series [15] is described as follows: Antioxidant activity assessed as DPPH radical scavenging activity incubated in dark for 30 mins by spectrophotometric method relative to ascorbic acid. It is filed as functional.
Series [16] in a line: Haemolytic activity in human erythrocytes assessed as induction of hemolysis at 2.5 mM after 30 mins relative to H202. To be noted: erythrocytes, read-out: Activity. It is filed as cell-based, Erythrocyte.
A short description of series [17]: as §1. Type of series: cell-based, Erythrocyte. To be noted: erythrocytes, read-out: Activity.
A short description of series [18]: as §3. Type of series: cell-based, Erythrocyte. To be noted: erythrocytes, read-out: Activity.
The test system of series [19] is HCT-116. The experiment in a line: Reduction in CDK1 mRNA expression in human HCT116 cells at 100 nM after 6 hrs hrs by SYBR green dye-based qRT-PCR analysis relative to control. Type of series: functional. To be noted: HCT-116, 6 h.
Another series is filed under the species Homo sapiens. The description is as §2.

pIC50: −log10 of the molar value. Calls of active or inactive are those of the source. The rule behind the calls is not given here.

Consider `N=C(N)c1ccc(-c2ccc(-c3ccccc3)s2)s1`, for which the inhibition – broadly, the share of the control response that was lost under treatment – in series [1] came to 61.7%; in [2], 53%. Further, the Activity entry in the series with Erythrocyte [3] and with Erythrocyte [12] was “Non-Toxic” in each case. The hemolysis at 0.5 h, 10000 µM in series [4] worked out at 85.1%. Also, the “fold change (FC)” value with HCT-116 [5] is 1.1; with HCT-116 [6], 2.39; in the series on HCT-116 [10], 0.88; in series [13], 0.7; in the series on HCT-116 [14], 2.47; in series [15], 0.6. For the same compound, the pIC50 (in general, the IC50 on a negative log10 scale, so that one unit is a factor of ten) is 6.62 in the series on K562 and 4.31 in the series with WI-38. Also, in the series on K562, the IC50 was 38000 µM. Further, the result in [7] and in series [8] was Active. For the same compound, the hemolysis at 0.5 h, 5000 µM in [9] was 56.7%. Further, the “Selectivity Index” value in [11] is 38.3. In [16], the hemolysis at 0.5 h, 2500 µM was 15.3%.

Take `COc1ccc(-c2ccc(-c3ccc(C(=N)N)s3)s2)cc1`: the values for the inhibition in series [1] and in series [2] were 59.2% and 51.9%, respectively. Further, the hemolysis at 0.5 h, 625 µM in [17] is 4%. Also, in [4], the hemolysis at 0.5 h, 10000 µM came to 92.7%. The “fold change (FC)” value is 1.06 with HCT-116 [5]; 2.51 in the series on HCT-116 [6]; 0.91 in the series on HCT-116 [10]; 0.6 in [13]; 2.38 in the series with HCT-116 [14]; 0.6 in series [15]. The pIC50 in the series with K562 was 6.74; with WI-38, 4.89. Besides, in the series with K562, the IC50 was 19500 µM. Moreover, the result in series [7] and in series [8] was Active. For the same compound, the hemolysis at 0.5 h, 5000 µM in [9] stood at 63.7%. Moreover, in [11], the “Selectivity Index” value came out at 43. Also, the hemolysis at 0.5 h, 1250 µM in [18] was 17.3%. Also, the hemolysis at 0.5 h, 2500 µM in series [16] is 41%.

Turning to `COc1cccc(-c2ccc(-c3ccc(C(=N)N)s3)s2)c1`, the results for the inhibition in series [1] and in [2] were 58.2% and 47.5%, respectively. Moreover, the Activity result with Erythrocyte [3] was “Non-Toxic”. Further, the hemolysis at 0.5 h, 10000 µM in series [4] came out at 79%. For the same compound, the “fold change (FC)” value is 0.89 in the series on HCT-116 [5]; 3.71 in the series with HCT-116 [6]; 0.93 in the series with HCT-116 [10]; 0.6 in [13]; 1.01 with HCT-116 [14]; 0.5 in [15]. The figures for the pIC50 with K562 and in the series with WI-38 were 6.74 and 4.11, respectively. In addition, in the series on K562, the IC50 was 19500 µM. Further, the result in series [7] and in series [8] was Active. Also, the hemolysis at 0.5 h, 5000 µM in series [9] amounted to 39%. The “Selectivity Index” value in series [11] is given as 148.4. For the same compound, in series [18], the hemolysis at 0.5 h, 1250 µM came to 3.1%. The hemolysis at 0.5 h, 2500 µM in series [16] is 16.1%.

For the compound `O=c1[nH]cc(F)c(=O)[nH]1` [FLUOROURACIL], the “fold change (FC)” value was found to be 1.48 with HCT-116 [5], 3.92 with HCT-116 [6], 0.48 in the series on HCT-116 [10] and 4.53 in the series with HCT-116 [14]. For the same compound, the pIC50 in the series on WI-38 was 5.08. For the same compound, in the series with HCT-116 [19], the inhibition at 0.1 µM fell in the range of 50 to 52%. For the same compound, the “Selectivity Index” value in the series listed under Homo sapiens was “inactive”.

Turning to `O=C1O[C@H]([C@@H](O)CO)C(O)=C1O` [ASCORBIC ACID], the Activity entry in the series with Erythrocyte [3] and with Erythrocyte [12] was “Non-Toxic” in each case. Further, the hemolysis at 0.5 h, 10000 µM in [4] is 16.3%. Besides, the hemolysis at 0.5 h, 5000 µM in series [9] is 8%. Moreover, the fold change (FC) in [13] and in series [15] was 1 in each case. Also, in series [16], the hemolysis at 0.5 h, 2500 µM worked out at 4%.

For the origin of these results see ChEMBL document CHEMBL4346657, “Anticancer activity, dual prooxidant/antioxidant effect and apoptosis induction profile of new bichalcophene-5-carboxamidines” (Eur J Med Chem, 2019).
